Reference: US20230123585A1, “COMPOSITIONS AND METHODS FOR TREATING OR PREVENTING CANCER USING DEUBIQUITINASE INHIBITORS” (The University of Chicago, priority 2020, published 2023)

Key:
p-METTL3 (S43) = p-METTL3 (S43) in A375 cells, IP with METTL3 antibody followed by immunoblot; format: cell-based, human; conditions: 1 h, 1 μM dabrafenib, 1 μM PLX-4720, 10 μM PD0325901, 0.1 μM trametinib
Excerpt: FIGS. 10A-10G: ERK Interacts and Phosphorylates METTL3 and WTAP. (A-C) Mass spectrometry detected S43, S50 and S525 phosphorylation in METTL3 in 293T cells co-transfected with B-RAF V600E. (D) Characterization of anti-p-METTL3 (S43) antibodies of 293T cells transfected as indicated with MEK S218D/S222D, HER2 V659E, B-RAF V600E and WT or non-phosphorylatable alanine mutant (3A) METTL3. (E) The METTL3 S43 phosphorylation was identified by in vitro kinase assays, in which purified METTL3-METTL14 were incubated with activated ERK2. (F) A375 cells were treated with 1 μM dabrafenib, 1 μM PLX-4720, 10 μM PD0325901, 0.1 μM tramentib for 1 h. Cell lysates were subjected to IP with METTL3 antibody followed by immunoblot. (G) Phos-tag SDS-PAGE showing the phosphorylation status of WT or non-phosphorylatable alanine mutants of mice WTAP in 293T cells co-transfected with B-RAF. 2A, T298A/S341A.
To investigate METTL3 phosphorylation by ERK inside cells, a polyclonal antibody was generated that targets S43-phosphorylated METTL3. This antibody recognizes S43-phosphorylated METTL3 but not a mutant form of METTL3, METTL3 3A, with all three phosphorylation serine sites replaced with alanine (FIG. 10D). This P-S43 antibody was then used as a tool to monitor METTL3 phosphorylation. […] Furthermore, the p-METTL3 (S43) in A375 cells, a human melanoma cell line with constitutively active ERK due to a B-RAF V600E mutation, was abrogated by treatments with B-RAF inhibitors (dabrafenib and PLX4720) or MEK inhibitors (PD0325901 and trametinib) (FIG. 10F), supporting that S43 phosphorylation on METTL3 is installed through the ERK pathway.
Immunoprecipitation, immunoblotting, and in vitro kinase assay. Immunoprecipitation (IP) and immunoblotting (IB) were performed as previously described (Sun et al., 2016). […] Primary antibodies were detected by HRP-linked secondary antibodies (Cell Signaling) together with SuperSignal West Pico Plus chemiluminescent substrate (Thermo Scientific) and imaged in a FluorChem R system (ProteinSimple).

ubiquitination of METTL3 = assay: Ubiquitination of METTL3 in A375 cells transfected with HA-ubiquitin (IP anti-METTL3, immunoblot anti-HA); format: cell-based, human; conditions: 10 μM MG-132 and PD0325901 for 8 h
Procedure: FIGS. 11A-11G: USP5 is Required for ERK-Mediated METTL3 Stabilization. (A) A375 cells transfected with HA-ubiquitin (ub) were treated with 10 μM MG-132 and MEK inhibitor PD0325901 for 8 h. The ubiquitination of METTL3 was detected by IP with anti-METTL3 and immunoblot with anti-HA. (B) After 8 h treatment with 10 μM PD0325901 with or without 10 μM MG-132, cell lysates from A375 cells were analyzed by immunoblot. (C) A375 cells were treated with various concentrations of PD0325901 for 1 h. Cell lysates were subjected to IP with METTL3 antibody followed by immunoblot. (D) 293T cells transfected as indicated were subjected to IP/immunoblot analysis. (E) Immunofluorescence analysis of myc-METTL3 (green) in mESC stable transfectants. DAPI (blue) was used to mark the nucleus. (F) Lysates of 293T cells transfected as indicated were subjected to IP with anti-Flag antibody followed by immunoblot. (G) Immunofluorescence analysis of 293T cells co-transfected with myc-METTL3 (green), Flag-USP5 (red) with or without constitutively active B-RAF.
FIGS. 14A-14I: Phosphorylation of the m^6A Methyltransferase Complex May Affect Tumorigenesis. […] (B) LC-MS/MS quantification of the m^6A/A ratio in mRNA of melanoma cell lines. (C) After 8 h treatment with 10 μM PD0325901 or 0.1 μM tramentib, cell lysates from HCT-116 cells were analyzed by immunoblot. […] The ubiquitination of METTL3 was detected by IP with anti-METTL3 and immunoblot with anti-HA. (F) After 8 hr treatment with 10 μM EOAI3402143 (EOAI) or 30 μM vialinin A, cell lysates from HCT-116 cells were analyzed by immunoblot. […] (I) LC-MS/MS quantification of the m^6A/A ratio in mRNA of breast cancer cell lines.
(§1) Immunoprecipitation, immunoblotting, and in vitro kinase assay. […] Primary antibodies were detected by HRP-linked secondary antibodies (Cell Signaling) together with SuperSignal West Pico Plus chemiluminescent substrate (Thermo Scientific) and imaged in a FluorChem R system (ProteinSimple).

[1] = tested on: m^6A methyltransferase complex in HCT-116 cells; assay: Immunoblot of m^6A methyltransferase complex in HCT-116 cell lysates; format: cell-based; conditions: 8 h, 10 μM PD0325901 or 0.1 μM trametinib
Procedure: FIGS. 14A-14I: Phosphorylation of the m^6A Methyltransferase Complex May Affect Tumorigenesis. (A) Oncogenes (promote cancer), tumor suppressors (inhibit carcinogenesis), and drivers (important in cancer development, either oncogene or tumor suppressor) were used as classifiers by Cancermine database to identify the potential role of METTL3 from the published literature. (B) LC-MS/MS quantification of the m^6A/A ratio in mRNA of melanoma cell lines. (C) After 8 h treatment with 10 μM PD0325901 or 0.1 μM tramentib, cell lysates from HCT-116 cells were analyzed by immunoblot. (D) Kaplan-Meier analysis of overall survival time based on METTL3 expression from the skin cutaneous melanoma (SKCM) dataset at The Cancer Genome Atlas (TCGA). […] The ubiquitination of METTL3 was detected by IP with anti-METTL3 and immunoblot with anti-HA. (F) After 8 hr treatment with 10 μM EOAI3402143 (EOAI) or 30 μM vialinin A, cell lysates from HCT-116 cells were analyzed by immunoblot. […] (I) LC-MS/MS quantification of the m^6A/A ratio in mRNA of breast cancer cell lines.
as §1

## O=C(NOC[C@H](O)CO)c1ccc(F)c(F)c1Nc1ccc(I)cc1F [PD0325901]
p-METTL3 (S43)
  p-METTL3 (S43): abrogated
Ubiquitination of METTL3
  ubiquitination of METTL3: increased
[1]
  m^6A methyltransferase complex level: decreased
